The record followed here is PubChem BioAssay (NCI).

Some test systems named below: SNB-19 CNS; COLO 205 colon; RPMI-8226 leukemia; SW-620 colon; SK-MEL-28 melanoma; MDA-MB-231 breast; HOP-62 NSCLC; RXF 393 renal; OVCAR-4 ovarian; CAKI-1 renal.
What all share (test): inhibition of tumour cell growth, NCI panel, 48 h

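Dose response: 5 concentrations. Exposure: 48 h. Format: 96-well plates. Endpoint: linear interpolation; highest concentration if not reached. The concentration for 50% growth inhibition is given as GI50. TGI marks complete inhibition of growth.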

For `C[CH2][Sn]([CH2]C)([O]C(=O)c1ccc(OC)c(OC)c1OC)[O]C(=O)c1ccc(OC)c(OC)c1OC`, the GI50 with SNB-19 CNS was 53.5 µM; in the assay with COLO 205 colon it was 65.1 µM; with RPMI-8226 leukemia it was 22.7 µM; in the assay with SW-620 colon it was 36500 nM; with SK-MEL-28 melanoma, 26.6 µM; with MDA-MB-231 breast it was 59.1 µM. For the same compound, the GI50 in the assay with HOP-62 NSCLC was over 100 µM; in the assay with RXF 393 renal, 14400 nM; with OVCAR-4 ovarian, over 82600 nM; with CAKI-1 renal, 14.7 µM. Further, the TGI in the assay with SNB-19 CNS was over 67.5 µM; in the assay with COLO 205 colon it was over 100 µM; in the assay on RPMI-8226 leukemia, 72.2 µM; in the assay with SW-620 colon, 69.1 µM; with SK-MEL-28 melanoma, over 69 µM; in the assay with MDA-MB-231 breast, over 100 µM. For the same compound, the TGI in the assay with HOP-62 NSCLC is over 100 µM; with RXF 393 renal it was 30.6 µM; with OVCAR-4 ovarian it was over 100 µM; with CAKI-1 renal it was 30.6 µM.

Turning to `C#Cc1cccc(NC(=O)c2ccc(NC(=O)CCl)cc2)c1`, the GI50 was 55.6 µM in the assay with SNB-19 CNS; 23.7 µM in the assay on COLO 205 colon; 14.7 µM with RPMI-8226 leukemia; 15700 nM in the assay with SW-620 colon; over 82.5 µM in the assay with SK-MEL-28 melanoma; 24 µM in the assay with MDA-MB-231 breast. Also, the GI50 is 68.3 µM in the assay on HOP-62 NSCLC, 23900 nM with RXF 393 renal, 16700 nM with OVCAR-4 ovarian and over 82.5 µM with CAKI-1 renal. The TGI is over 82.5 µM in the assay on SNB-19 CNS; over 82.5 µM in the assay with COLO 205 colon; 44.1 µM in the assay with RPMI-8226 leukemia; 34 µM in the assay with SW-620 colon; over 82.5 µM in the assay on SK-MEL-28 melanoma; over 82.5 µM in the assay with MDA-MB-231 breast. Besides, the TGI was over 82.5 µM in the assay on HOP-62 NSCLC, over 82.5 µM with RXF 393 renal, 72 µM with OVCAR-4 ovarian and over 82.5 µM in the assay with CAKI-1 renal.

Take `Cc1ccc(S(=O)(=O)N2CCc3ccc(O)c4c3C2Cc2ccc3c(c2-4)OCO3)cc1` (stereo not given): the GI50 with SNB-19 CNS is 1.4 µM; in the assay on COLO 205 colon, 5.08 µM; in the assay with RPMI-8226 leukemia, 0.959 µM; in the assay with SW-620 colon, 429 nM; in the assay on SK-MEL-28 melanoma, 0.668 µM; with MDA-MB-231 breast, 1.47 µM. The GI50 was 1.89 µM in the assay with HOP-62 NSCLC, 853 nM in the assay on RXF 393 renal, 934 nM in the assay with OVCAR-4 ovarian and 0.737 µM in the assay on CAKI-1 renal. In addition, the TGI is over 100 µM with SNB-19 CNS; 18.7 µM in the assay on COLO 205 colon; 5.08 µM in the assay with RPMI-8226 leukemia; over 42.9 µM in the assay with SW-620 colon; 18.6 µM in the assay on SK-MEL-28 melanoma; 9.48 µM in the assay with MDA-MB-231 breast. Further, the TGI is 27.9 µM in the assay with HOP-62 NSCLC, 5.96 µM in the assay with RXF 393 renal, 33.3 µM in the assay on OVCAR-4 ovarian and 22.6 µM in the assay with CAKI-1 renal.

As for `CSc1ccc(C(=O)/C=C/c2ccccc2Cl)cc1`, the GI50 was 26.5 µM with SNB-19 CNS; 33.5 µM with COLO 205 colon; 7.11 µM in the assay on RPMI-8226 leukemia; 4950 nM in the assay with SW-620 colon; 23.4 µM in the assay on SK-MEL-28 melanoma; 13.3 µM in the assay with MDA-MB-231 breast. The GI50 was 17.4 µM in the assay on HOP-62 NSCLC, 4230 nM in the assay on RXF 393 renal, 25700 nM with OVCAR-4 ovarian and 15.4 µM with CAKI-1 renal. The TGI in the assay on SNB-19 CNS was 61.2 µM; with COLO 205 colon, over 100 µM; with RPMI-8226 leukemia, 37.7 µM; in the assay on SW-620 colon it was 28.7 µM; in the assay on SK-MEL-28 melanoma it was 52.9 µM; in the assay on MDA-MB-231 breast, 31.2 µM. Further, the TGI in the assay on HOP-62 NSCLC came to 35.4 µM; in the assay with RXF 393 renal, 16.4 µM; with OVCAR-4 ovarian, 66 µM; in the assay on CAKI-1 renal, 30.7 µM.

Take `COc1cccc(Nc2nccc(-c3cnn4ncccc34)n2)c1`: the GI50 was 0.0833 µM in the assay on SNB-19 CNS; 0.0433 µM with COLO 205 colon; 0.0621 µM with RPMI-8226 leukemia; 73.9 nM in the assay with SW-620 colon; 0.0395 µM in the assay on SK-MEL-28 melanoma; 0.0839 µM with MDA-MB-231 breast. Moreover, the GI50 with HOP-62 NSCLC is 0.0798 µM; in the assay with RXF 393 renal it was 44.9 nM; in the assay on OVCAR-4 ovarian, 90.3 nM; with CAKI-1 renal it was 0.0573 µM. Further, the TGI in the assay on SNB-19 CNS was over 25 µM; in the assay with COLO 205 colon it was 0.0988 µM; in the assay with RPMI-8226 leukemia it was 0.166 µM; in the assay with SW-620 colon, over 12.3 µM; with SK-MEL-28 melanoma, 0.14 µM; in the assay with MDA-MB-231 breast, over 25 µM. Further, the TGI with HOP-62 NSCLC is 0.532 µM; in the assay on RXF 393 renal, 0.108 µM; with OVCAR-4 ovarian, 17.8 µM; in the assay on CAKI-1 renal, 3.77 µM.

For the compound `FC(F)(F)c1cc(Nc2ccc3cc(OCCCN4CCOCC4)ccc3n2)ccc1Cl`, the GI50 in the assay on SNB-19 CNS is 1.84 µM; in the assay on COLO 205 colon it was 1.74 µM; with RPMI-8226 leukemia it was 1.11 µM; in the assay on SW-620 colon, 1850 nM; in the assay with SK-MEL-28 melanoma, 1.59 µM; in the assay on MDA-MB-231 breast, 1.83 µM. The GI50 is 1.87 µM with HOP-62 NSCLC, 1390 nM in the assay on RXF 393 renal, 2540 nM in the assay on OVCAR-4 ovarian and 1.66 µM in the assay with CAKI-1 renal. Further, the TGI with SNB-19 CNS stood at 3.79 µM; with COLO 205 colon, 3.49 µM; in the assay on RPMI-8226 leukemia it was 6.61 µM; in the assay with SW-620 colon, 3.6 µM; with SK-MEL-28 melanoma it was 3.39 µM; with MDA-MB-231 breast it was 4.2 µM. Besides, the TGI in the assay on HOP-62 NSCLC was found to be 3.63 µM; with RXF 393 renal, 3.22 µM; in the assay with OVCAR-4 ovarian it was 12.8 µM; in the assay on CAKI-1 renal, 3.44 µM.

On to `[CH3][Sn]([CH3])([CH3])[O][N+](=O)[O-]`, for which the GI50 is over 10 µM with SNB-19 CNS; over 10 µM with COLO 205 colon; 4.98 µM in the assay on RPMI-8226 leukemia; 2060 nM with SW-620 colon; over 10 µM with SK-MEL-28 melanoma; 3.67 µM in the assay on MDA-MB-231 breast. For the same compound, the GI50 in the assay on HOP-62 NSCLC was 6.41 µM; in the assay with RXF 393 renal, 2190 nM; in the assay on OVCAR-4 ovarian, 2660 nM; in the assay with CAKI-1 renal, 4.24 µM. For the same compound, the TGI was over 10 µM in the assay on SNB-19 CNS; over 10 µM with COLO 205 colon; over 10 µM in the assay with RPMI-8226 leukemia; 4.8 µM in the assay on SW-620 colon; over 10 µM with SK-MEL-28 melanoma; 7.35 µM in the assay with MDA-MB-231 breast. Also, the TGI was over 10 µM in the assay on HOP-62 NSCLC, 9.73 µM in the assay with RXF 393 renal, 5.53 µM in the assay with OVCAR-4 ovarian and over 10 µM with CAKI-1 renal.
